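Compound exposure: 48 hours, 5 concentrations, 96-well plates. The concentration for 50% growth inhibition is given as GI50.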 Activity calls are given as the source filed them. No stated cut-off is given here; in the data, active = GI50 up to about 1.1 µM and inactive = higher.
How the values were obtained:
Assay in all cases: NCI anticancer screen, dose series, 48 h
786-0 = system: 786-0
KM-20L2 = system: KM-20L2
HT-29 = system: HT-29
RXF 393 = system: RXF 393
LXFL 529 = system: LXFL 529
OVCAR-4 = system: OVCAR-4
CCRF-CEM = system: CCRF-CEM
UACC-257 = system: UACC-257
DMS-114 = system: DMS-114
EKVX = system: EKVX
HL-60 = system: HL-60
RXF 631 = system: RXF 631
OVCAR-8 = system: OVCAR-8
SK-MEL-2 = system: SK-MEL-2
COLO 205 = system: COLO 205
UACC-62 = system: UACC-62
A549 = system: A549
SW-620 = system: SW-620
HCT-116 = system: HCT-116
RPMI-8226 = system: RPMI-8226
A498 = system: A498
SF-268 = system: SF-268
M14 = system: M14
SNB-19 = system: SNB-19
Malme-3M = system: Malme-3M
SK-OV-3 = system: SK-OV-3
HOP-92 = system: HOP-92
SNB-75 = system: SNB-75
SNB-78 = system: SNB-78
DLD-1 = system: DLD-1
SK-MEL-28 = system: SK-MEL-28
CAKI-1 = system: CAKI-1
OVCAR-3 = system: OVCAR-3
SK-MEL-5 = system: SK-MEL-5
SF-539 = system: SF-539
HOP-62 = system: HOP-62
NCI-H23 = system: NCI-H23
U-251 = system: U-251
KM12 = system: KM12
IGROV-1 = system: IGROV-1
TK-10 = system: TK-10
NCI-H522 = system: NCI-H522
MOLT-4 = system: MOLT-4
HOP-18 = system: HOP-18
K562 = system: K562
HCT-15 = system: HCT-15
ACHN = system: ACHN
SN12C = system: SN12C
UO-31 = system: UO-31
LOX IMVI = system: LOX IMVI
NCI-H460 = system: NCI-H460
NCI-H226 = system: NCI-H226
HCC 2998 = system: HCC 2998
DMS-273 = system: DMS-273
OVCAR-5 = system: OVCAR-5
M19-MEL = system: M19-MEL
SR = system: SR
SF-295 = system: SF-295
XF498 = system: XF498

Measured: GI50

CCOc1ccccc1NC(=O)C(=O)C(C(=O)c1ccc2ccccc2c1)C1OC(=O)c2ccccc21 (centres undefined)
inactive: 786-0 7.78 µM | KM-20L2 28.3 µM | HT-29 28.6 µM | RXF 393 2.26 µM | LXFL 529 5.21 µM | OVCAR-4 4.61 µM | CCRF-CEM 8.22 µM | UACC-257 13.7 µM | DMS-114 9.62 µM | EKVX 22.2 µM | HL-60 10 µM | RXF 631 6.18 µM | OVCAR-8 8.49 µM | SK-MEL-2 13.2 µM | COLO 205 14.8 µM | UACC-62 8.77 µM | A549 21.4 µM | SW-620 6.31 µM | HCT-116 9.2 µM | RPMI-8226 6.08 µM | A498 14.3 µM | SF-268 5.86 µM | M14 15.9 µM | SNB-19 4.53 µM | Malme-3M 14.3 µM | SK-OV-3 15.4 µM | HOP-92 10.5 µM | SNB-75 8.77 µM | SNB-78 11.6 µM | DLD-1 15.2 µM | SK-MEL-28 10.4 µM | CAKI-1 10.4 µM | OVCAR-3 12.7 µM | SK-MEL-5 10.6 µM | SF-539 7.08 µM | HOP-62 13.4 µM | NCI-H23 7.64 µM | U-251 6.64 µM | KM12 20.8 µM | IGROV-1 13 µM | TK-10 24.4 µM | NCI-H522 11.8 µM | MOLT-4 3.37 µM | HOP-18 16.6 µM | K562 17.1 µM | ACHN 29.2 µM | SN12C 15.5 µM | UO-31 12.7 µM | LOX IMVI 12.5 µM | NCI-H460 6.68 µM | NCI-H226 1.82 µM | HCC 2998 10.7 µM | DMS-273 12.3 µM | OVCAR-5 21.2 µM
14.2 µM: HCT-15

Cc1[nH]c(=O)nc(N/N=C/c2ccc(O)cc2)c1C(=O)Nc1ccc(Cl)cc1
> 100 µM: HCT-15
inactive: 786-0 > 100 µM | KM-20L2 > 100 µM | LXFL 529 > 100 µM | OVCAR-4 > 100 µM | CCRF-CEM > 100 µM | UACC-257 > 100 µM | DMS-114 > 100 µM | EKVX > 100 µM | HL-60 > 100 µM | RXF 631 > 100 µM | OVCAR-8 > 100 µM | SK-MEL-2 > 100 µM | M19-MEL > 100 µM | COLO 205 > 100 µM | UACC-62 > 100 µM | A549 > 100 µM | SW-620 > 100 µM | HCT-116 > 100 µM | RPMI-8226 > 100 µM | A498 > 100 µM | SF-268 > 100 µM | M14 45.5 µM | SNB-19 > 100 µM | Malme-3M > 100 µM | SK-OV-3 > 100 µM | SNB-75 > 100 µM | SNB-78 > 100 µM | DLD-1 > 100 µM | SK-MEL-28 > 100 µM | CAKI-1 > 100 µM | OVCAR-3 > 100 µM | SK-MEL-5 88.1 µM | SF-539 > 100 µM | HOP-62 > 100 µM | U-251 > 100 µM | KM12 > 100 µM | IGROV-1 > 100 µM | TK-10 > 100 µM | SR > 100 µM | NCI-H522 > 100 µM | MOLT-4 > 100 µM | HOP-18 > 100 µM | K562 > 100 µM | ACHN > 100 µM | SN12C > 100 µM | UO-31 > 100 µM | NCI-H460 > 100 µM | NCI-H226 65.2 µM | HCC 2998 > 100 µM | DMS-273 > 100 µM

Cc1ccccc1/N=N/C(C(=O)c1ccccc1)C(=O)c1ccccc1
inactive: 786-0 25.4 µM | KM-20L2 27.7 µM | HT-29 28 µM | LXFL 529 13.1 µM | SF-295 23.8 µM | OVCAR-4 18.7 µM | CCRF-CEM 9.46 µM | UACC-257 26.7 µM | DMS-114 19.4 µM | EKVX 25.2 µM | HL-60 11.9 µM | RXF 631 34.9 µM | OVCAR-8 31.8 µM | SK-MEL-2 19.7 µM | XF498 19.5 µM | M19-MEL 17.5 µM | COLO 205 33.7 µM | UACC-62 20.9 µM | A549 24.9 µM | SW-620 25.9 µM | HCT-116 16.1 µM | RPMI-8226 16.1 µM | A498 39 µM | SF-268 23.3 µM | M14 18.1 µM | SNB-19 18.9 µM | Malme-3M 31.7 µM | SK-OV-3 41.6 µM | HOP-92 17.9 µM | SNB-75 19.1 µM | DLD-1 30.8 µM | SK-MEL-28 24 µM | CAKI-1 34.1 µM | OVCAR-3 24.9 µM | SK-MEL-5 16.6 µM | SF-539 23.8 µM | HOP-62 23.8 µM | NCI-H23 18.3 µM | U-251 16 µM | KM12 29.7 µM | IGROV-1 44.2 µM | TK-10 44.8 µM | NCI-H522 15.7 µM | MOLT-4 13.4 µM | K562 22.6 µM | ACHN 27.4 µM | SN12C 20 µM | UO-31 17.2 µM | NCI-H226 11.7 µM | HCC 2998 40.8 µM | DMS-273 18.3 µM | OVCAR-5 31.1 µM
17.1 µM: HCT-15
